{
  "source": "patent US20100015169A1",
  "about": "“Tumor Antigens” (GREEN PEPTIDE CO., LTD., priority 2001, published 2010)",
  "type_in_all_cases": "cell-based, human",
  "key": {"[1]": {"system": "PC93-A24 cells (HLA-A24+ prostate cancer cell)", "assay": "6-hour 51Cr release test of peptide-induced CTL against HLA-A24+ prostate cancer cells", "conditions": "for Cytotoxic activity (% lysis): HLA-A24+ prostate cancer cell", "description": "(§1) The cytotoxic activity of CTL induced from the PBMC of an HLA-A24^+ prostate cancer patient by PSM624-632 (SEQ ID NO: 3) was examined in the ^51Cr release test using prostate cancer cells. First, PBMC from two patients with prostate cancer were cultured for 10 days and stimulated as in Example 1, and then further cultured for 10 days prior to use as effector cells. The cytotoxic activity of the effector cells against HLA-A24^+ target cells was measured by a standard 6-hour ^51Cr release test at an E/T ratio of 10:1 or 20:1, and the results obtained were expressed as the percentage of specific lysis. PC93-A24 cells resulting from the introduction and expression of the HLA-A24 gene in HLA-A24^− prostate cancer cells (PC93), methods known in the art, were used as target cells. In addition, the HLA-A24^− prostate cancer cells were used as controls.\nPBMC were cultured with 10 μg/ml each of PSA152-160 (SEQ ID NO: 1) or PSA248-257 (SEQ ID NO: 2) for 12 days, in the same manner as described above. Prostate cancer cells PC93-A24, which were created in Example 2 and used as target cells, were incubated with the aforementioned cultured PBMC, and then the amount of IFN-γ in the culture supernatant was measured (see Example 1). In addition, the aforementioned cultured cells were cultured for 14 additional days, and the cytotoxic activity against the PC93-A24 cells was measured by the ^51Cr release test (see Example 2)."}, "[2]": {"system": "C1R-A2402 cells (HLA-A24+) pulsed with the same peptide", "assay": "IFN-γ production (ELISA) by peptide-stimulated PBMC in reaction to peptide-pulsed C1R-A2402 cells; induction of HLA-A24-restricted CTL", "conditions": "PBMC of prostate cancer patients; for cases in which the peptide enhanced the production of IFN-γ from PBMC: 10 μM peptide, 10 days, positive = significant, 50 pg/ml NET or more, Example 1", "description": "The ability of the synthesized peptide to induce HLA-A24-restricted CTL from the PBMC that was prepared from a prostate cancer patient was examined. The PBMC were prepared from blood by a method of the art. 1×10^5 PBMC were cultured with 10 μM of each peptide in each well of a U-shaped 96-well micro-culture plate (produced by Nunc) to which 200 μl of culture medium (comprising 45% RPMI-1640 culture medium, 45% AIM-V® culture medium (Invitrogen), 100 U/ml of IL-2, 0.1 mM of MEM non-essential amino acid solution (Invitrogen), and 10% FCS) was added, at 37° C. under conditions of 5% CO2-95% air. At 4 days and 7 days of culturing, half of the culture medium was removed and replaced with a culture medium having the aforementioned composition containing the peptide equivalent to the peptide that was added in the beginning. At 10 days of culturing, the cells were collected, washed, and used as effector cells (E).\nMeanwhile, each synthesized peptide (10 μM) was incubated with C1R-A2402 cells (HLA-A24^+) for 2 hours at 37° C. under conditions of 5% CO2-95% air, to make the peptide of interest bind to the HLA-A24 molecule expressed on the cell surface. C1R-A2402 cells thus pulsed with each of peptide were used as target cells (T).\nThe effector cells were equally divided, and mixed with a variety of target cells, followed by incubating for 18 hours at 37° C. under conditions of 5% CO2-95% air. After incubation, 100 μl of supernatant was collected, and the amount of IFN-γ produced was measured by ELISA. In so doing, the effector cells were paired with the target cells in such a way that the peptide used to induce the effector cells and the peptide pulsed to C1R-A2402 cells were the same. In addition, a peptide derived from the human immunodeficiency virus (hereinafter abbreviated as HIV) was used as a control, and the quantity of IFN-γ produced by CTL that recognized C1R-A2402 cells pulsed with the HIV peptide was taken as a background and subtracted from each measurement value. Each measurement value (NET) that has been calculated was statistically processed by the Student's t-test, and those with a P value of 0.05 or below were considered to be significant. In addition, a peptide that enhanced IFN-γ production with significance by 50 pg/ml NET or more was assessed as positive. […]"}, "[3]": {"system": "HLA-A24- prostate cancer cells (PC93)", "assay": "6-hour 51Cr release test of peptide-induced CTL against HLA-A24- prostate cancer cells (control)", "conditions": "HLA-A24- prostate cancer cell", "description": "as §1"}, "[4]": {"conditions": "PBMC of a healthy subject, stimulated 12 days + 14 days, significant versus PC93 cells (FIG. 7B)"}, "[5]": {"conditions": "PBMC of prostate cancer patients, significant versus PC93 cells (FIG. 8B)"}, "[6]": {"conditions": "PBMC of prostate cancer patient 1, E/T = 10"}, "[7]": {"conditions": "PBMC of prostate cancer patient 1, E/T = 20"}, "[8]": {"conditions": "PBMC of prostate cancer patient 2, E/T = 10"}, "[9]": {"conditions": "PBMC of prostate cancer patient 2, E/T = 20"}},
  "note": "No end group written: not given here.",
  "data": [
    {"substance": "CYASGWGSI [PSA152-160]", "values": [
      {"measurement": "cytotoxic activity against PC93-A24 cells", "setting": "[1]; [4]", "result": "exhibited cytotoxic activity"},
      {"measurement": "cytotoxic activity against PC93-A24 cells", "setting": "[1]; [5]", "result": "exhibited cytotoxic activity"}
    ]},
    {"substance": "HYRKWIKDTI [PSA248-257]", "values": [
      {"measurement": "cytotoxic activity against PC93-A24 cells", "setting": "[1]; [4]", "result": "exhibited cytotoxic activity"},
      {"measurement": "cytotoxic activity against PC93-A24 cells", "setting": "[1]; [5]", "result": "exhibited cytotoxic activity"}
    ]},
    {"substance": "PSCA27-36: peptide (PSCA residues 27-36) that did not induce HLA-A24-restricted CTL (LQVENCTQLG)", "values": [
      {"measurement": "induction of HLA-A24-restricted CTL", "setting": "[2]", "result": "did not induce"}
    ]},
    {"substance": "PSCA76-84: peptide derived from PSCA, residues 76-84, HLA-A24-binding motif (DYYVGKKNI; A peptide recognized by HLA-A24 restricted cytotoxic T lymphocytes, which is designed based on the amino acid sequence of PSCA)", "values": [
      {"measurement": "cases in which the peptide enhanced the production of IFN-γ from PBMC", "setting": "[2]", "result": "1 out of 12"}
    ]},
    {"substance": "PSCA82-91: peptide derived from PSCA, residues 82-91, HLA-A24-binding motif (KNITCCDTDL; A peptide recognized by HLA-A24 restricted cytotoxic T lymphocytes, which is designed based on the amino acid sequence of PSCA)", "values": [
      {"measurement": "cases in which the peptide enhanced the production of IFN-γ from PBMC", "setting": "[2]", "result": "2 out of 12"}
    ]},
    {"substance": "PSM74-83: peptide derived from PSMA that did not induce HLA-A24-restricted CTL (LYNFTQIPHL)", "values": [
      {"measurement": "induction of HLA-A24-restricted CTL", "setting": "[2]", "result": "did not induce"}
    ]},
    {"substance": "PSM178-186: peptide derived from PSMA that did not induce HLA-A24-restricted CTL (NYARTEDFF)", "values": [
      {"measurement": "induction of HLA-A24-restricted CTL", "setting": "[2]", "result": "did not induce"}
    ]},
    {"substance": "PSM227-235: peptide derived from PSMA that did not induce HLA-A24-restricted CTL (LYSDPADYF)", "values": [
      {"measurement": "induction of HLA-A24-restricted CTL", "setting": "[2]", "result": "did not induce"}
    ]},
    {"substance": "PSM298-306: peptide derived from PSMA that did not induce HLA-A24-restricted CTL (GYYDAQKLL)", "values": [
      {"measurement": "induction of HLA-A24-restricted CTL", "setting": "[2]", "result": "did not induce"}
    ]},
    {"substance": "PSM448-456: peptide derived from PSMA that did not induce HLA-A24-restricted CTL (AYINADSSI)", "values": [
      {"measurement": "induction of HLA-A24-restricted CTL", "setting": "[2]", "result": "did not induce"}
    ]},
    {"substance": "PSM520-528: peptide derived from PSMA that did not induce HLA-A24-restricted CTL (DFEVFFQRL)", "values": [
      {"measurement": "induction of HLA-A24-restricted CTL", "setting": "[2]", "result": "did not induce"}
    ]},
    {"substance": "PSM565-574: peptide derived from PSMA that did not induce HLA-A24-restricted CTL (FYDPMFKYHL)", "values": [
      {"measurement": "induction of HLA-A24-restricted CTL", "setting": "[2]", "result": "did not induce"}
    ]},
    {"substance": "PSM584-593: peptide derived from PSMA that did not induce HLA-A24-restricted CTL (VFELANSIVL)", "values": [
      {"measurement": "induction of HLA-A24-restricted CTL", "setting": "[2]", "result": "did not induce"}
    ]},
    {"substance": "PSM606-614: peptide derived from PSMA that did not induce HLA-A24-restricted CTL (KYADKIYSI)", "values": [
      {"measurement": "induction of HLA-A24-restricted CTL", "setting": "[2]", "result": "did not induce"}
    ]},
    {"substance": "PSM624-633: peptide derived from PSMA that did not induce HLA-A24-restricted CTL (TYSVSFDSLF)", "values": [
      {"measurement": "induction of HLA-A24-restricted CTL", "setting": "[2]", "result": "did not induce"}
    ]},
    {"substance": "PSM699-708: peptide derived from PSMA that did not induce HLA-A24-restricted CTL (KYAGESFPGI)", "values": [
      {"measurement": "induction of HLA-A24-restricted CTL", "setting": "[2]", "result": "did not induce"}
    ]},
    {"substance": "PSM704-712: peptide derived from PSMA that did not induce HLA-A24-restricted CTL (SFPGIYDAL)", "values": [
      {"measurement": "induction of HLA-A24-restricted CTL", "setting": "[2]", "result": "did not induce"}
    ]},
    {"substance": "TYSVSFDSL [PSM624-632]", "values": [
      {"measurement": "Cytotoxic activity (% lysis)", "setting": "[1]; [6]", "result": 16.1, "unit": "% lysis"},
      {"measurement": "Cytotoxic activity (% lysis)", "setting": "[1]; [7]", "result": 19.9, "unit": "% lysis"},
      {"measurement": "Cytotoxic activity (% lysis)", "setting": "[1]; [8]", "result": 18.0, "unit": "% lysis"},
      {"measurement": "Cytotoxic activity (% lysis)", "setting": "[1]; [9]", "result": 17.8, "unit": "% lysis"},
      {"measurement": "Cytotoxic activity (% lysis)", "setting": "[3]; [6]", "result": 6.6, "unit": "% lysis"},
      {"measurement": "Cytotoxic activity (% lysis)", "setting": "[3]; [7]", "result": 6.1, "unit": "% lysis"},
      {"measurement": "Cytotoxic activity (% lysis)", "setting": "[3]; [8]", "result": 3.5, "unit": "% lysis"},
      {"measurement": "Cytotoxic activity (% lysis)", "setting": "[3]; [9]", "result": 5.6, "unit": "% lysis"}
    ]}
  ]
}
